The values below come from patent US10335423B2, “Inhibition of HIV infection through chemoprophylaxis” (THE UNITED STATES OF AMERICA, as represented by the …, priority 2006, dated 2019).

Counter-ions that a name gives are not always drawn. Like-named read-outs stand apart in the source and are kept apart here.

A short description of one series: in vivo. To be noted: rhesus monkey. Here is the method:
A dose of 22 mg/kg of tenofovir disoproxil fumarate (TDF) is given orally and 20 mg/kg of emtricitabine (FTC) given orally or subcutaneously to one group of adult male rhesus macaques.

The conditions of series [1]: human, in vivo, cited from earlier work.
Another series has as its system SHIV. To be noted: oral daily dosing, dose equivalent to that used in humans; cited from earlier work.
Series [2] has as its system simian immunodeficiency virus (SIV). To be noted: monkey models challenged with SIV; cited from earlier work.
Series [3] concerns SHIVSF162P3. Kind of series: SHIV plasma viral load (real-time PCR) in breakthrough infections. Format: in vivo, rhesus macaques. Here is the method: Plasma RNA is quantified using a real-time PCR assay as previously described.^5 This assay has a sensitivity of detection of 50 RNA copies/ml or 10 copies of a pVp1 plasmid carrying the SIVmac239 RT gene. HIV-1 RNA is extracted from 1 mL of plasma using the NucliSens extraction method (bioMerieux). A known amount of virus particles (3×10^5) from an HIV-1 CM240 virus stock is added to each sample prior to extraction to control for the efficiency of extraction. Reverse transcription is performed using 10 microliters (μl) of extracted RNA and the 2-step TaqMan Gold reverse-transcriptase (RT)—PCR kit (Applied Biosystems) according to the manufacturer's instructions. PCR reactions are performed as described using an ABI 7000 […] (Applied Biosystems). Virus loads are calculated from a standard curve generated with known amount of virus particles. All primers and probes used for SIVmac239 and HIV-1 CM240 have been reported elsewhere.^5 HIV-1 CM240 is obtained from the National Institutes of Health (NIH) AIDS Research and Reference Reagent Program.
Since the dynamics of breakthrough infections that occur during inventive prophylaxis and drug resistance emergence are unknown, the 6 infected animals from Groups 1 and 2 are followed under continued drug treatment. FIG. 3 compares the virus load kinetics in the 6 breakthrough infections with those in 12 untreated macaques that had sufficient follow-up samples. The mean peak viremia in the 6 treated macaques was 4.9±0.5 log10 RNA copies/ml, 2.0 log10 lower than in untreated controls (6.9±0.3 log10 RNA). […] In contrast, all 12 untreated macaques had detectable virus loads during a median follow-up period of 7 weeks (range=5-36 weeks). The arrow in FIG. 4 denotes the first detectable antibody response. Grey circles indicate detectable M184V/I mutation; wild type sequences are shown in black full circles. Open circles are provided for data points not genotyped.

Series [4] has as its system SHIVSF162P3. Kind of series: Repeated weekly rectal SHIV162p3 exposures under once daily prophylaxis (survival curves). The format is in vivo, rhesus macaques. Here is the method:
A chimeric envelope SHIVSF162P3 isolate is used to inoculate the macaques. SHIVSF162P3 is a construct that contains the tat, rev, and env coding regions of HIV-1SF162 in a background of SIVmac239. This isolate was obtained from the National Institutes of Health (NIH) AIDS Research and Reference Reagent Program.^7,8 Virus exposures are performed 2 hours after drug treatment, and involved non-traumatic inoculation of 1 mL of SHIVSF162P3 (10 TCID50 or […]) into the rectal vault via a sterile gastric feeding tube.^9 Anesthetized macaques remained recumbent for at least 15 min after each intra-rectal inoculation.
The exact log-rank test is used for a discrete-time survival analysis of the treatment and control groups, with use of the number of inoculations as the time variable. The Cox proportional hazards model is used to estimate the relative hazard ratio (HR). Percent protection is calculated from the HR value using the formula: (1-1/HR)×100. All statistical analyses for calculation of the efficacy of the different interventions are performed using SAS software (version 9.1; SAS Institute) and StatXact software (version 6.3; Cytel).
Macaques are exposed rectally once weekly for up to 14 weeks to SHIV162p3 which contains an R5 tropic HIV-1 envelope that resembles naturally transmitted viruses. The SHIV162p3 challenge dose is 10 TCID50 or 7.6×10^5 RNA copies which is similar to HIV-1 RNA levels in semen during acute infection in humans.^11 Virus exposures are terminated when a macaque became infected. […] Three prophylactic drug treatments of increasing drug potency are each given once daily to a group of six macaques. Animals in Group 1 were treated subcutaneously with 20 mg/kg of FTC alone. Animals in Group 2 received orally a combination of FTC (20 mg/kg) and TDF (22 mg/kg). […] The rate of infection in each group is compared with that seen in 18 untreated control macaques (9 real time and 9 historical controls).
All treated macaques received the corresponding drugs 7 to 9 days prior to the first virus inoculation to achieve steady-state plasma levels. Treated animals that remained uninfected during the 14 challenges received 28 days of post-exposure prophylaxis after the last challenge. Protection was defined as absence of persistent viremia and seroconversion.
Data with TDF (20 mg/kg) is also provided for comparison.

`CC(C)OC(=O)OCOP(=O)(CO[C@H](C)Cn1cnc2c(N)ncnc21)OCOC(=O)OC(C)C` [TDF, tenofovir disoproxil fumarate]: the “area-under the plasma concentration-time curve over a 24 h interval (AUC)” value in the series “in vivo” (male, po, 22 mg/kg) was determined as 4.49 µg·h/mL. Moreover, the AUC in series [1] (300 mg) was 5.02 µg·h/mL.
Take `C[C@H](Cn1cnc2c(N)ncnc21)OCP(=O)(O)O` [tenofovir]: the “protection against rectal SHIV transmission” value with SHIV is “partially protective”. In series [2], the prophylactic activity result is given as “Prophylactic activity has been demonstrated”.
On to `Nc1nc(=O)n([C@@H]2CS[C@H](CO)O2)cc1F` [FTC, emtricitabine], for which the AUC in “in vivo” (male, 20 mg/kg) was 11 µg·h/mL; in series [1] (po, 200 mg) it was 10.0 ± 3.12 µg·h/mL. Further, the “plasma FTC levels after subcutaneous administration” value in “in vivo” is “comparable to those achieved during oral administration”. Also, the “time after the peak in viremia to undetectable virus loads” value in the series on SHIVSF162P3 [3] (animal AG-07) was 7 weeks; in the series with SHIVSF162P3 [3] (animal AG-80), 3 weeks; with SHIVSF162P3 [3] (animal AH-04) it was 4 weeks. The viremia during follow-up result with SHIVSF162P3 [3] (for up to 20 weeks, animals AG-80, AH-04, AG-07, AG-81) was “consistently low or undetectable”. Also, the “exposure with first detectable viral RNA” value was found to be 13 with SHIVSF162P3 [4] (animal AG-07), 10 in the series on SHIVSF162P3 [4] (animal AG-46), 5 in the series on SHIVSF162P3 [4] (animal AG-80) and 12 in the series on SHIVSF162P3 [4] (animal AH-04). The “Cox proportional hazard ratio [HR] (fold reduction of infection compared to controls)” value in the series with SHIVSF162P3 [4] (compared to 18 untreated controls) stood at 3.8. Further, in the series with SHIVSF162P3 [4] (compared to untreated controls), the “infection / survival analysis compared to untreated controls” value is “statistically significant difference”. Besides, the “macaques that became infected” value with SHIVSF162P3 [4] (of 6 macaques per group, once daily treatment, up to 14 rectal exposures) was determined as 4. Moreover, the “macaques remaining uninfected / protected after 14 exposures” value with SHIVSF162P3 [4] (of 6 macaques per group, once daily treatment, weekly rectal SHIV162p3) came out at 2. Also, in the series with SHIVSF162P3 [4] (versus 4 animals previously receiving TDF, difference not statistically significant (p=0.5)), the “protection compared with TDF alone” value was “higher than that previously seen in 4 animals receiving TDF”.
